According to patent US7820172B1, “Laminin-derived multi-domain peptides” (BioSurface Engineering Technologies, Inc., priority 2006, dated 2010):
Positions of bridges follow the written chain, without caps; N, C: chain ends. Non-standard residues stand in square brackets, D forms with d. Residues, ends and D or L forms follow the SMILES beside them. Chains are numbered I, II in the order given. No end group written: not given here. Ahx = NCCCCCC(=O)O

Legend:
RMEC cells = type: cell-based, rat; settings: for increase in percentage cells bound on polystyrene: 0.1 μg/ml, two hours, as a percentage of uncoated controls; for cell binding to the polystyrene surface: RMEC cells, versus uncoated controls
Protocol: Cells Adhesion and Proliferation on LA2 coated surfaces. To evaluate the effects of LA2-coating on cell attachment, untreated polystyrene 96-well plates were coated with LA2 in concentration indicated in figures. In the cases of EVA films, ePTFE and titanium, the materials were placed in 48- or 96-well plate and coated with 2 μg/ml of LA2. Cell suspension in density of 1×10^6/ml was added to the wells. […] Cell number on the surface was determined using CyQuant® cell Proliferation Kit (Molecular Probes, Eugene, Oreg.). To detect cell adhesion on the titanium and ePTFE surfaces, cells were fixed with 4% buffered formalin and stained with bis-benzamide, viewed using fluorescence microscopy, and images recorded on digital media. In the cell proliferation studies, EVA films (6.5 mm diameter), similar to those used in the cell adhesion studies, were coated with 2 μg LA2/ml. The coated films were placed in untreated polystyrene 96-well plate and A7R5 cell suspension in density of 1×10^5/ml was added to the wells. After incubation of 3 hours, 3 and 7 days, the EVA films were transferred to a new 96-well plate and cell number on the film was determined using CyQuant® cell Proliferation Kit.
YIGSR is a different laminin adhesion sequence that has been used to increase cell attachment to device surfaces. […] Since cells could bind to LA2 via cell surface heparan sulfate, the heparin binding domain of LA2 was blocked by coating peptide on substrate-adsorbed heparin.

cell attachment = assay: Related cell binding assays comparing coatings (cell type not stated); type: cell-based; settings: coating
Male SD rats = assay: Tissue integration of LA2-coated ePTFE in rat subcutaneous implant model; type: in vivo; settings: two weeks after implant
Protocol: Tissue integration of LA2-coated material in rat implant model. Male SD rats were anesthetized using an intraperitoneal administration of ketamine (40 mg/kg) and xylazine (5 mg/kg). Excess hair was removed and sterile surgical sites were prepared on the lower back. Subcutaneous pouches, approximately 3 cm long, were made through a skin incision using a hemostat and blunt dissection. A wafer (1×1.5 cm) of porous ePTFE was introduced into a subcutaneous pouch. The pouches were positioned on the upper flanks on either side of the backbone, with one wafer coated with MD LA2 and the other wafer uncoated. After the implant, the incision was closed with stainless steel surgical clips. Animals were assigned to experiment groups randomly. Each animal received bilateral subcutaneous implants. There were 8 implant sites for each treatment. After 14 days, animals were euthanized and the ePTFE implants were surgically recovered and processed for subsequent staining with hemotoxylin and eosin.
We hypothesized that ePTFE coated with LA2 would display improved tissue integration. […] In this analysis, the depth of tissue penetration was monitored by histomorphometric methods and scored on a scale of 1-4 (in 25% increments).

C2C12 cells = assay: Attachment of C2C12 cells to coated polystyrene; type: cell-based, murine
Protocol: FIG. 1. Microphotographs of C2C12 cell on LA2 polystyrene. Murine myoblast C2C12 cells were seeded on uncoated polystyrene (A), or polystyrene coated 0.05-(B), 0.2-(C), and 0.4 (D) μg/ml LA2. Three hours after cell seeding, the materials were washed with PBS and micrographs taken with phase contrast optics. Original magnification 200×.
FIG. 2. Attachment of C2C12 cells to LA2 or SIKVAV (SEQ ID NO:16) coated polystyrene. C2C12 cells were seeded on polystyrene surface coated with LA2 (A) or SIKVAV (SEQ ID NO:16) (B). Three hours after seeding, unbound cells were removed by rinsing, and relative cell number determined using a fluorescent assay as described.
Cells Adhesion and Proliferation on LA2 coated surfaces. To evaluate the effects of LA2-coating on cell attachment, untreated polystyrene 96-well plates were coated with LA2 in concentration indicated in figures. […] Cell number on the surface was determined using CyQuant® cell Proliferation Kit (Molecular Probes, Eugene, Oreg.). To detect cell adhesion on the titanium and ePTFE surfaces, cells were fixed with 4% buffered formalin and stained with bis-benzamide, viewed using fluorescence microscopy, and images recorded on digital media. […] After incubation of 3 hours, 3 and 7 days, the EVA films were transferred to a new 96-well plate and cell number on the film was determined using CyQuant® cell Proliferation Kit.

cell binding = assay: Competitive blocking of cell binding to LA2; type: cell-based; settings: binding not eliminated by either agent individually

| Compound | increase in percentage cells bound on polystyrene (RMEC cells) | cell binding to the polystyrene surface (RMEC cells) | level of cell binding when used as competitive blocking agent (cell binding) | other results |
| --- | --- | --- | --- | --- |
| H-YIGSRAAK(H-YIGSRAA)-Ahx-Ahx-Ahx-RKRKLERIAR-NH2 (chain 1 H-YIGSRAAK[Ahx][Ahx][Ahx]; also: branched: chain 2 on Lys8 side chain of chain 1, chain 1 C-terminus joined to chain 3 N-terminus via Ahx-Ahx-Ahx) [MD Peptide 2, similar multi-domain peptide containing YIGSR] | over 50% | substantially more effective than uncoated controls | – | cell attachment versus linear SIKVAV, dimerized SIKVAV and random-sequence peptides (cell attachment): more effective |
| SEQ ID NO:25 (KPVSLSYRAPARFFESHVA; Random sequence) | – | did not support cell binding | – | – |
| SEQ ID NO:26 (DTAYKDWPNLFREIR; Random sequence) | – | did not support cell binding | – | – |
| CC[C@H](C)[C@H](NC(=O)[C@H](CCCNC(=N)N)NC(=O)[C@H](CCC(=O)O)NC(=O)[C@H](CC(C)C)NC(=O)[C@H](CCCCN)NC(=O)[C@H](CCCNC(=N)N)NC(=O)[C@H](CCCCN)NC(=O)[C@H](CCCNC(=N)N)NC(=O)CCCCCNC(=O)CCCCCNC(=O)CCCCCNC(=O)[C@H](CCCCNC(=O)[C@H](C)NC(=O)[C@H](C)NC(=O)[C@@H](NC(=O)[C@H](C)NC(=O)[C@@H](NC(=O)[C@H](CCCCN)NC(=O)[C@@H](NC(=O)[C@@H](N)CO)[C@@H](C)CC)C(C)C)C(C)C)NC(=O)[C@H](C)NC(=O)[C@H](C)NC(=O)[C@@H](NC(=O)[C@H](C)NC(=O)[C@@H](NC(=O)[C@H](CCCCN)NC(=O)[C@@H](NC(=O)[C@@H](N)CO)[C@@H](C)CC)C(C)C)C(C)C)C(=O)N[C@@H](C)C(=O)N[C@@H](CCCNC(=N)N)C(N)=O [LA2, H-SIKVAVAAK(H-SIKVAVAA)-Ahx-Ahx-Ahx-RKRKLERIAR-NH2] (I: H-SIKVAVAAK[Ahx][Ahx][Ahx]RKRKLERIAR-NH2 / II: H-SIKVAVAA; amide I:9-II:C) | over 150% | – | – | inflammation (Male SD rats): little evidence of inflammation |
| SIKVAV (Cellular attachment peptide sequence) | – | – | reduced the level of cell binding | coating concentration required to achieve the same levels of cell attachment (C2C12 cells; C2C12, polystyrene (FIG. 2)): 100 µg/mL; cell attachment compared to uncoated polystyrene (C2C12 cells; C2C12 cells, coated polystyrene, 3 hours): able to increase cell attachment |
| heparin | – | – | reduced the level of cell binding | – |
